≈ marks a conversion by molar mass, not a printed value.

What is called remaining activity is the signal under treatment as a percentage of the control signal. The term MIC denotes the least concentration at which growth counts as inhibited.

One series addresses E. coli LpxA (Escherichia coli, UniProt P0A722). Nature of the series: LpxA enzyme inhibition (TLC of radiolabeled UDP-GlcNAc acylation). The format is biochemical. The settings on record: percentage of control, lower is better; for remaining activity at 500 µM (stock) / % LpxA activity (500 μM): test compound dilution 500 μM; for remaining activity at 5000 µM (stock) / % LpxA activity (5 mM): test compound dilution 5 mM. The protocol: Measurement of LpxA activity was based on increased mobility of radiolabeled UDP-N-acetyl-D-glucosamine on thin layer chromatography (TLC) plates upon acylation. One μl of test compound of appropriate dilution in ethanol was mixed with 2.5 μM β-hydroxy-myristoyl-ACP and 0.5 μM E. coli LpxA in 1% bovine serum albumin and 40 mM Na-Hepes (pH 8.0) at room temperature (total volume 8 μl). The reaction was initiated by adding 2 μl of UDP-[^3H]N-acetyl-D-glucosamine and aliquots were removed at various time intervals and spotted directly on silica gel G plates.
The procedure as given above was followed, with the appropriate dilutions of test compound being 5 mM and 500 μM.

Series [1] deals with E. coli K12 wild type strain. Nature of the series: Pro-antibiotic MIC of antibiotic agents alone and with DNM0195. The format is cell-based. The note with it: antibiotic agent alone. The protocol: Susceptibilities to the compounds were determined using the National Committee for Clinical Laboratory Standards (NCCLS) M7-A6 broth microdilution method. Cation-adjusted Mueller-Hinton broth (Ca^2+, 25 μg/mL; Mg^2+, 12.5 μg/mL) microdilution panels were prepared to contain antimicrobial doubling dilution concentrations of an appropriate range. […] Each final panel well volume was 100 μL with a bacterial inoculum of 5×10^5 CFU (colony forming units)/mL. Panels were read following 16 to 20 h of incubation at 35 degrees Celsius in ambient air. The MIC (minimum inhibitory concentration) was defined as the lowest concentration of antimicrobial inhibiting visible growth.
Following Example 24, MICs of various antibiotic agents were determined against the E. coli K12 wild type strain, using the same procedure with the appropriate range for each antibiotic. For erythromycin, gentamicin, and kanamycin, this range was 0.24 μg/mL-500 μg/mL. Parallel to this effort, solutions were prepared which were identical. To each of these were added 0.5 μL of DNM0195 stock solution and mixed to produce a final concentration of 500 μM for determination of pro-antibiotic activity.

For series [2], the system named is E. coli D22 mutant strain. In words: Antibiotic MIC, NCCLS M7-A6 broth microdilution. The format is cell-based. The note with it: range tested 1 μM-2 mM. How it is done:
(§1) Susceptibilities to the compounds were determined using the National Committee for Clinical Laboratory Standards (NCCLS) M7-A6 broth microdilution method. Cation-adjusted Mueller-Hinton broth (Ca^2+, 25 μg/mL; Mg^2+, 12.5 μg/mL) microdilution panels were prepared to contain antimicrobial doubling dilution concentrations of an appropriate range. DMSO (dimethylsulfoxide) controls were incorporated into the panel to mimic the quantity of DMSO used in dissolving some of the compounds at the higher concentrations. Each final panel well volume was 100 μL with a bacterial inoculum of 5×10^5 CFU (colony forming units)/mL. Panels were read following 16 to 20 h of incubation at 35 degrees Celsius in ambient air. The MIC (minimum inhibitory concentration) was defined as the lowest concentration of antimicrobial inhibiting visible growth.
(§2) Procedure followed was as described above, with the appropriate range being 1 μM-2 mM and using the E. coli D22 mutant strain and the E. coli K12 wild type strain. Value recorded was the lowest concentration of compound needed to produce the bactericidal or bacteriostatic effect (lower is better): […]
A general note: Dilution methods test growth across graded concentrations, often in twofold steps.

For series [3], the system named is E. coli K12 wild type strain. Nature of the series: Antibiotic MIC, NCCLS M7-A6 broth microdilution. The format is cell-based. The note with it: range tested 1 μM-2 mM. How it is done: as §1, §2
A further series relates to mice. The settings on record: mouse, in vivo.
Setting [4] is: Escherichia coli, read-out: MIC.

Sequence of E. coli LpxA (P0A722 whole entry): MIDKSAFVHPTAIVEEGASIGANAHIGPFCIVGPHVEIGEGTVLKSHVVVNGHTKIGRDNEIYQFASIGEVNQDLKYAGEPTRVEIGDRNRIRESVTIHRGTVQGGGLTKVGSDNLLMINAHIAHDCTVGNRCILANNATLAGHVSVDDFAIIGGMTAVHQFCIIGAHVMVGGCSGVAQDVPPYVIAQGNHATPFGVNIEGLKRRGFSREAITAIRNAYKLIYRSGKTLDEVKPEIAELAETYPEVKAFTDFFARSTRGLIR

For the compound `O=C(O)/C=C/c1cc(-c2nnn[nH]2)c(-c2ccc(F)cc2)s1` [DNM0224, (E)-3-(5-(4-fluorophenyl)-4-(1H-tetrazol-5-yl)thiophen-2-yl)acrylic acid], on E. coli LpxA, the remaining activity at 500 µM (stock) turned out to be 88.7% and the remaining activity at 5000 µM (stock) worked out at 37.9%.
Taken in the same sequence, the figures for `COC(=O)/C=C/c1sc(-c2ccc(F)cc2)cc1-c1nnn[nH]1` [DNM0229, (E)-methyl 3-(5-(4-fluorophenyl)-3-(1H-tetrazol-5-yl)thiophen-2-yl)acrylate] were 57.8% and 4%.
`O=C1NC(=O)C(=Cc2sc(Cc3ccccc3)cc2-c2nnn[nH]2)S1` [DNM0246, 5-((5-benzyl-3-(1H-tetrazol-5-yl)thiophen-2-yl)methylene)thiazolidine-2,4-dione]: at E. coli LpxA, the remaining activity at 500 µM (stock) was 165% and the remaining activity at 5000 µM (stock) amounted to 10.3%.
Consider `O=C(O)C(=Cc1cc(-c2nnn[nH]2)c(Cc2ccccc2)s1)C(=O)O` [DNM0264, 2-((5-benzyl-4-(1H-tetrazol-5-yl)thiophen-2-yl)methylene)malonic acid], for which, at E. coli LpxA, the remaining activity at 500 µM (stock) is 56.8% and the remaining activity at 5000 µM (stock) amounted to 5.4%.
The like results for `COC(=O)/C=C/c1cc(-c2nnnn2C)c(Cc2ccccc2)s1` [DNM0227, (E)-methyl 3-(5-benzyl-4-(1-methyl-1H-tetrazol-5-yl)thiophen-2-yl)acrylate] were, in that order, 92.1% and 86.6%.
As for Gentamicin, the MIC in series [1] stood at 0.39 µg/mL.
Consider `COC(=O)/C=C/c1cc(-c2nnn[nH]2)c(-c2cccc3ccccc23)s1` [DNM0234, (E)-methyl 3-(5-(naphthalen-1-yl)-4-(1H-tetrazol-5-yl)thiophen-2-yl)acrylate], for which, at E. coli LpxA, the remaining activity at 500 µM (stock) turned out to be 92.1% and the remaining activity at 5000 µM (stock) turned out to be 1.1%.
Taken in the same sequence, the figures for `O=C(O)/C=C/c1cc(-c2nnn[nH]2)c(-c2cccc3ccccc23)s1` [DNM0235, (E)-3-(5-(naphthalen-1-yl)-4-(1H-tetrazol-5-yl)thiophen-2-yl)acrylic acid] were 59.6% and 7.3%.
With `Cn1nnnc1-c1cc(/C=C/C(=O)O)sc1Cc1ccccc1` [DNM0196, (E)-3-(5-benzyl-4-(1-methyl-1H-tetrazol-5-yl)thiophen-2-yl)acrylic acid], at E. coli LpxA, the remaining activity at 500 µM (stock) turned out to be 43.9% and the remaining activity at 5000 µM (stock) was determined as 5.8%.
In the case of `CC[C@H]1OC(=O)[C@H](C)[C@@H](O[C@H]2C[C@@](C)(OC)[C@@H](O)[C@H](C)O2)[C@H](C)[C@@H](O[C@@H]2O[C@H](C)C[C@H](N(C)C)[C@H]2O)[C@](C)(O)C[C@@H](C)C(=O)[C@H](C)[C@@H](O)[C@]1(C)O` [Erythromycin], in series [1] (setting [4]), the MIC is 62.5 µg/mL.
For the compound `COC(=O)/C=C/c1sc(Cc2ccccc2)cc1-c1nnn[nH]1` [DNM0243, (E)-methyl 3-(5-benzyl-3-(1H-tetrazol-5-yl)thiophen-2-yl)acrylate], at E. coli LpxA, the remaining activity at 500 µM (stock) was determined as 69.2% and the remaining activity at 5000 µM (stock) was 0.9%.
In the case of `COC(=O)/C=C/c1cc(-c2nnn[nH]2)c(Cc2ccccc2)s1` [DNM0194, (Z) and (E)-methyl 3-(5-benzyl-4-(1H-tetrazol-5-yl)thiophen-2-yl)acrylate], on E. coli LpxA, the “% LpxA activity (500 μM)” value was found to be 36.0% and the “% LpxA activity (5 mM)” value came to 1.4%. Besides, the MIC in series [2] is 1000 to 2000 µM.
With `Cn1nnc(-c2cc(/C=C/C(=O)O)sc2Cc2ccccc2)n1` [DNM0197, (E)-3-(5-benzyl-4-(2-methyl-2H-tetrazol-5-yl)thiophen-2-yl)acrylic acid], on E. coli LpxA, the remaining activity at 500 µM (stock) amounted to 62.4% and the remaining activity at 5000 µM (stock) was found to be 20.2%.
As to `Cn1nnnc1-c1cc(-c2ccc(F)cc2)sc1/C=C/C(=O)O` [DNM0233, (E)-3-(5-(4-fluorophenyl)-3-(1-methyl-1H-tetrazol-5-yl)thiophen-2-yl)acrylic acid], at E. coli LpxA, the remaining activity at 500 µM (stock) came out at 98.8% and the remaining activity at 5000 µM (stock) is 47.3%.
The like results for `O=C(O)/C=C/c1cc(-c2nnn(CCC(=O)O)n2)c(Cc2ccccc2)s1` [DNM0252, (E)-3-(5-benzyl-4-(2-(2-carboxyethyl)-2H-tetrazol-5-yl)thiophen-2-yl)acrylic acid] were, in that order, 62.9% and 5.1%.
Regarding `O=C(O)/C=C/c1cc(-c2nnn[nH]2)c(Cc2ccccc2)s1` [DNM0195, (Z) and (E)-3-(5-benzyl-4-(1H-tetrazol-5-yl)thiophen-2-yl)acrylic acid], the “% LpxA activity (500 μM)” value on E. coli LpxA is 7.6%. The “% LpxA activity (5 mM)” value on E. coli LpxA worked out at 3.1%. Also, the minimal inhibitory concentration (MIC) in series [2] was 1000 µM (≈ 312 µg/mL); in series [3], 1000 to 2000 µM. The Liver biopsies entry with mice is on record as “normal”.
In the case of `COC(=O)/C=C/c1cc(-c2nnn(C)n2)c(Cc2ccccc2)s1` [DNM0226, (E)-methyl 3-(5-benzyl-4-(2-methyl-2H-tetrazol-5-yl)thiophen-2-yl)acrylate], on E. coli LpxA, the remaining activity at 500 µM (stock) worked out at 97% and the remaining activity at 5000 µM (stock) worked out at 93%.
Regarding `O=C(O)/C=C/c1sc(-c2ccc(-c3ccccc3)cc2)cc1-c1nnn[nH]1` [DNM0245, (E)-3-(5-(biphenyl-4-yl)-3-(1H-tetrazol-5-yl)thiophen-2-yl)acrylic acid], at E. coli LpxA, the remaining activity at 500 µM (stock) came out at 78.5% and the remaining activity at 5000 µM (stock) was determined as 4.4%.
For `O=C(O)/C=C/c1cccc(Cc2sc(/C=C/C(=O)O)cc2-c2nnn[nH]2)c1` [DNM0270, (E)-3-(3-((5-((E)-2-carboxyvinyl)-3-(1H-tetrazol-5-yl)thiophen-2-yl)methyl)phenyl)acrylic acid], at E. coli LpxA, the remaining activity at 500 µM (stock) was 89.7% and the remaining activity at 5000 µM (stock) stood at 3%.
Turning to `O=C(O)/C=C/c1cc(-c2nnn[nH]2)c(-c2ccc(-c3ccccc3)cc2)s1` [DNM0225, (E)-3-(5-(4-biphenylyl)-4-(1H-tetrazol-5-yl)thiophen-2-yl)acrylic acid], on E. coli LpxA, the remaining activity at 500 µM (stock) is 84.9% and the remaining activity at 5000 µM (stock) is 7.3%.
Regarding `NC[C@H]1O[C@H](O[C@H]2[C@H](O)[C@@H](O[C@H]3O[C@H](CO)[C@@H](O)[C@H](N)[C@H]3O)[C@H](N)C[C@@H]2N)[C@H](O)[C@@H](O)[C@@H]1O` [Kanamycin], the MIC in series [1] (setting [4]) was determined as 3.12 µg/mL.
For `COC(=O)/C=C/c1sc(-c2ccc(-c3ccccc3)cc2)cc1-c1nnn[nH]1` [DNM0240, (E)-methyl 3-(5-(4-biphenyl)-3-(1H-tetrazol-5-yl)thiophen-2-yl)acrylate], on E. coli LpxA, the “% LpxA activity (500 μM)” value stood at 90.7% and the “% LpxA activity (5 mM)” value is on record as 6.6%.
